Results on two molecules are retold here after article PMC6212948, “Fucoxanthin-Containing Cream Prevents Epidermal Hyperplasia and UVB-Induced Skin Erythema in Mice” (Marine Drugs, 2018).

Each structure is given as a SMILES string.

For data set [1], the system named is TPA-induced epidermal hyperplasia in mice dorsal skin. As to the kind of experiment: TPA-induced epidermal hyperplasia model. The data set is classed as in vivo, Swiss CD-1 mice. The conditions noted are these: topical cream 100 mg per site containing 200 µg drug, vs TPA-cream group. The procedure: Female Swiss CD-1 mice (n = 10 per group) were used to study the effect of FX on TPA-induced hyperplasia in mice dorsal skin. Briefly, the dorsal hair of animals was removed with an electric clipper and treated with depilatory cream (Deliplus, Barcelona, Spain). After 24 h, the animals were assigned to the different groups: Sham (vehicle: 100 mg of cream with 0.2% of ethanol); TPA control group; TPA-Cream (vehicle: 100 mg of cream with 0.2% of ethanol); Dex-cream (100 mg of cream per site, containing 200 µg of Dex dissolved in ethanol at 10 µg/mL); FX-cream formulation (100 mg of cream per site, containing 200 µg of FX dissolved in ethanol at 10 µg/mL). The creams were applied to the dorsal skin in an area of 1 cm^2 using a syringe, during 2 days before the hyperplasia induction. Mice were anesthetized with ketamine (100 mg/kg of animal) and diazepam (5 mg/kg of animal) during treatments and TPA challenge. On day 4, TPA (2 nmol of TPA, dissolved in 20 µL of ethanol) was topically applied to the same areas on all groups except in sham group. After 1 h, FX-cream, the Dex-cream or vehicle were administered following the mentioned protocol. This procedure was replicated during two consecutive days. After 24 h of the last TPA dorsal application (day 7), mice were sacrificed by cervical dislocation and punch biopsies from the treated dorsal skin were weighed to evaluate edema, before further processing for histology and biochemical parameters.
The measurement of MPO activity was used as a marker of neutrophil infiltration. The tissue was thawed, weighed and homogenized in 10 volumes of 50 mM-PBS (pH 7.4). Then, the homogenate was centrifuged at 20,000× g for 20 min at 4 °C and the pellet was again homogenized in 10 volumes of 50 mM-PBS (pH 6) containing hexadecyl trimethylammonium bromide (0.5%) and 10 mM-EDTA. This homogenate was subjected to one cycle of freezing/thawing and sonicated. […] The changes in absorbance were monitorized at 450 nm with a microplate reader (Labysystem Multiskan EX, Thermo Scientific, New York, NY, USA). MPO activity unit was defined as the amount of enzyme present that produced a change in absorbance of 1.0 unit/min at 37 °C in the final reaction volume containing acetate. Results are expressed as units/mg tissue.
The samples were fixed in paraformaldehyde, dehydrated by increasing concentrations of ethanol and embedded in paraffin. […] Epidermal thickness was measured by using Scientific Imaging Systems (Biophotonics ImageJ Analysis Software; National Institutes of Health, Rockville, MD, USA).
COX-2 expression was measured by immunohistochemical analysis by using a streptavidin-biotin-peroxidase method. […]

Data set [2] relates to UVB-irradiated HaCaT cells. As to the kind of experiment: LDH assay in UVB-irradiated HaCaT keratinocytes. The data set is classed as cell-based, human. As to conditions: 10, 30 and 50 μM, 1 h prior to UVB 50 mJ/cm^2, 24 h, dose-dependent. As for the experimental part:
(§1) Human keratinocytes were exposed to UVB radiation as previously described. Briefly, the cells were grown to confluence and were treated with different concentrations of FX (10, 30 and 50 µM) for 1 h. Then, the medium was removed and a thin layer of PBS was added. Cells were exposed to a single dose of UVB radiation (50 mJ/cm^2) for 1 min. The UVB source was a CL-1000M UV Crosslinker (UVP, Upland, CA, USA), which was used to deliver an energy spectrum of UVB light (280–315 nm; peak intensity, 302 nm). After UVB irradiation, the cells were supplied with fresh complete medium and incubated for 24 h.
The measure of cytosolic enzyme LDH is one of the commonly used methods for assessing loss of cellular membrane integrity. The assay is based on the conversion of […] in the presence of LDH with the consequence oxidation of NADH as previously described. HaCaT cells were seeded in 6-well plates (5 × 10^5 cells/well). After 24 h, cells were treated with FX (10, 30 and 50 μM) for 1 h and then, were irradiated with UVB. After 24 h, cell-free supernatants and cell lysates were mixed in a 96-well plate and the absorbance was read by using a microplate reader system (Sinergy HT, Biotek®, Bad Friedrichshall, Germany). LDH leakage was estimated calculating the LDH activity in the cell-free medium and LDH activity in lysates ratio. […]

The conditions of data set [3]: cited from earlier work.
Data set [4] relates to IL-6 production in UVB-exposed HaCaT keratinocytes. The data set is described as follows: IL-6 production in UVB-exposed HaCaT keratinocytes (ELISA). The data set is classed as cell-based, human. The conditions noted are these: 1 h prior to UVB, 24 h after exposure, vs UVB. The procedure: as §1
HaCaT cells (5 × 10^5 cells/well) were seeded in 6-well plates. After 24 h, cells were treated with FX (10, […] and 50 μM) for 1 h and then, were exposed to UVB. After 24 h, supernatant fluids were collected and ELISA kit (Diaclone GEN-PROBE, Besançon, France) was employed to quantify IL-6 according to the manufacturer’s protocol. The absorbance at 450 nm was read by a microplate reader (Labysystem Multiskan EX, Thermo Scientific, New York, NY, USA).
For orientation: In an ELISA, binding on a coated surface is turned into a signal by an enzyme label.

Data set [5] concerns IL-6 and IL-8 production in TNF-α-stimulated HaCaT keratinocytes. As to the kind of experiment: IL-6 and IL-8 production in TNF-α-stimulated HaCaT keratinocytes (ELISA). The data set is classed as cell-based, human. The conditions noted are these: all concentrations tested (10, 30 and 50 μM), 1 h pre-treatment, TNF-α 10 ng/mL 24 h, vs TNF-α group. As for the experimental part: HaCaT cells were seeded in 6-well plates (5 × 10^5 cells/well). After 24 h, cells were washed twice (PBS, 4 °C) and medium containing FX (10, 30 and 50 μM) or Dex (1 μM) was added for 1 h, and then cells were stimulated with TNF-α (10 ng/mL) except for control group. After 24 h, supernatant fluids were collected and stored −80 °C until measurements. Commercial enzyme-linked immunosorbent assay (ELISA) kit (Diaclone GEN-PROBE, Besançon, France) was used to quantify IL-6 and IL-8 according to the manufacturer’s protocol.

Data set [6] deals with UVB-irradiated HaCaT cells. As to the kind of experiment: Intracellular ROS (DCF-DA assay) in UVB-irradiated HaCaT keratinocytes. The class given is cell-based, human. The conditions noted are these: 1 h prior to UVB 50 mJ/cm^2, 30 min after irradiation, vs UVB. As for the experimental part: as §1
For quantification of ROS in HaCaT cells, the DCF-DA assay was employed. HaCaT cells were seeded in nin96-well plates (10^4 cells/well). Non-irradiated cells were used as negative control. After 24 h, cells were treated with FX (10, 30 and 50 µM) for 1 h and then, were exposed to UVB. Post irradiation, cells were incubated with 2′,7′-dichlorodihydrofluorescein diacetate (DCFH-DA) solution (5 mg/mL) in PBS for 30 min [63]. The fluorescence of the 2′,7′-dichlorofluorescein (DCF) product was determined using a fluorescence plate reader (Sinergy HT, Biotek®, Bad Friedrichshall, Germany) at 485 nm for excitation and 535 nm for emission.

The test system of data set [7] is TNF-α production in LPS-stimulated THP-1 macrophages. The data set is described as follows: TNF-α production in LPS-stimulated THP-1 macrophages (ELISA). The data set is classed as cell-based, human. As for the experimental part:
THP-1 monocytes were differentiated into macrophages in 96-well plates (10^4 cells/well). Then, cells were incubated for 1 h with FX (10, 30 and 50 µM). The positive reference compound used was Dex (1 µM) (Sigma-Aldrich, St. Louis, MO, USA). Inflammatory response was induced by addition of LPS (1 μg/mL) except for control group. After 24 h, commercial enzyme-linked immunosorbent assay (ELISA) kit (Diaclone GEN-PROBE, Besançon, France) was used to quantify TNF-α according to the manufacturer’s protocol.

Data set [8] relates to HaCaT human keratinocytes. The data set is described as follows: SRB cell viability assay, HaCaT keratinocytes. The class given is cell-based. As to conditions: for % Viability HaCaT keratinocytes (24 h): mean ± ES, n = 3. The procedure: (§2) The THP-1 human monocytic leukemia cell line and HaCaT human keratinocytes were obtained from the American Type Culture Collection (ATCC, Manassas, VA, USA). THP-1 cells were cultured in RPMI 1640 medium (GIBCO, Grand Island, New York, NY, USA) containing 10% heat-inactivated fetal bovine serum (FBS), 100 U/mL penicillin and 100 μg/mL streptomycin. HaCaT human keratinocytes were maintained in high glucose Dulbecco’s modified Eagle’s medium (DMEM, GIBCO, Grand Island, New York, NY, USA). Both cell lines were grown in a humidified atmosphere containing 5% CO2 at 37 °C [20].
(§3) SRB assay was used for determining the viability of THP-1 macrophages and HaCaT cells upon exposure to FX (Sigma-Aldrich, St. Louis, MO, USA). Firstly, for differentiation into macrophages, THP-1 cells were seeded into 96-well plates at 10^4 cells/well in presence of phorbol 12-myristate 13-acetate (PMA, Sigma-Aldrich, St. Louis, MO, USA) for a final concentration of 0.2 µM for 72 h in 96-well plates and HaCaT cells were seeded into 96-well plates in the growth medium at 10^4 cells/well for 24 h to ensure the adherence. Both cellular types were incubated in a humidified atmosphere of 5% CO2 at 37 °C. After that, cells were treated with FX at final concentrations range of 10–100 µM in DMSO 0.1% (v/v) and the cytotoxicity was measured after 24, 48 and 72 h of incubation. The absorbance was determined at 492 nm in a microplate spectrophotometer (Sinergy HT, Biotek®, Bad Friedrichshall, Germany).

Another data set concerns THP-1 macrophages. The data set is described as follows: SRB cell viability assay, THP-1 macrophages. The data set is classed as cell-based, human. The conditions noted are these: for % Viability THP-1 macrophages (24 h): mean ± ES, n = 3. As for the experimental part: as §2, §3
Setting [9] is: 24 h after treatment, SRB assay.

In the case of `C[C@@H]1C[C@H]2[C@@H]3CCC4=CC(=O)C=C[C@]4(C)[C@@]3(F)[C@@H](O)C[C@]2(C)[C@@]1(O)C(=O)CO` [Dex, dexamethasone], in [1], the “epidermal hyperplasia (epidermal thickness, H&E)” value was “significant improvement” and the “myeloperoxidase (MPO) activity in skin homogenates” value is listed as “markedly diminished”. Besides, in data set [1] (p < 0.001), the “epidermal COX-2-positive stained cells (immunohistochemistry)” value is on record as “confirmed the anti-inflammatory effect” and the “skin edema (weight of 1 cm^2 punch biopsy)” value is “significantly reduced”.

In general, IC50 refers to the midpoint of a concentration-inhibition curve. With `CC(=O)O[C@H]1CC(C)(C)C(=C=C/C(C)=C/C=C/C(C)=C/C=C/C=C(C)/C=C/C=C(\C)C(=O)C[C@@]23O[C@]2(C)C[C@@H](O)CC3(C)C)[C@](C)(O)C1` [FX, fucoxanthin], the “UVB-induced mortality (LDH activity)” value in [2] is given as “significantly decreased”. For the same molecule, in data set [3], the “partition coefficient (log P)” value was 6.83–7.54. Also, the “inhibition of IL-6 levels” value turned out to be 23% in data set [4] (10 μM), 31% in [4] (30 μM) and 59% in [4] (50 μM). Besides, the IL-6 production result in data set [5] is listed as “significantly reduced”. In data set [5], the IL-8 production entry was “significantly reduced”. The “reduction of ROS levels” value in data set [6] (10 μM) was determined as 23%; in data set [6] (30 μM), 31%; in data set [6] (50 μM), 32%. For the same molecule, the TNF-α production entry in [7] (50 µM pre-treatment, LPS-stimulated, p < 0.001, similar values to Dex 1 μM) was “significant reduction”; in data set [7] (all concentrations tested (10, 30 and 50 μM), 1 h pre-treatment, LPS 1 μg/mL 24 h, vs LPS group) it was “significantly reduced”. The “% Viability HaCaT keratinocytes (24 h)” value was 111.2 ± 2.1% in data set [8] (10 μM), 105.2 ± 4.0% in data set [8] (30 μM), 103.9 ± 3.2% in [8] (50 μM) and 101.5 ± 2.2% in [8] (100 μM). Further, the IC50 (in data set [8] (setting [9]); in the data set with THP-1 macrophages (setting [9])) was greater than 100 µM throughout. The “% Viability THP-1 macrophages (24 h)” value in the data set with THP-1 macrophages (10 μM) is listed as 97.5 ± 2.0%; in the data set with THP-1 macrophages (30 μM), 96.5 ± 1.2%; in the data set on THP-1 macrophages (50 μM), 103.7 ± 1.1%; with THP-1 macrophages (100 μM) it was 90.7 ± 0.5%.
